Test results reported in ChEMBL document CHEMBL4017480, “Discovery and optimization of selective FGFR4 inhibitors via scaffold hopping” (Bioorg Med Chem Lett, 2017).

How the values were obtained:
[1] = Unbound plasma concentration in human at 2 uM measured after 4 hrs by LC-MS/MS analysis; type: ADME, cell-free
[2] = target: T1, Tyrosine-protein kinase ITK/TSK (Homo sapiens) (UniProt Q08881); assay: Inhibition of human ITK at 10 uM using myelin basic protein as substrate measured after 120 mins in presence of [gamma33P]ATP by P81 ion exchange chromatographic method relative to control
T1 sequence (whole entry): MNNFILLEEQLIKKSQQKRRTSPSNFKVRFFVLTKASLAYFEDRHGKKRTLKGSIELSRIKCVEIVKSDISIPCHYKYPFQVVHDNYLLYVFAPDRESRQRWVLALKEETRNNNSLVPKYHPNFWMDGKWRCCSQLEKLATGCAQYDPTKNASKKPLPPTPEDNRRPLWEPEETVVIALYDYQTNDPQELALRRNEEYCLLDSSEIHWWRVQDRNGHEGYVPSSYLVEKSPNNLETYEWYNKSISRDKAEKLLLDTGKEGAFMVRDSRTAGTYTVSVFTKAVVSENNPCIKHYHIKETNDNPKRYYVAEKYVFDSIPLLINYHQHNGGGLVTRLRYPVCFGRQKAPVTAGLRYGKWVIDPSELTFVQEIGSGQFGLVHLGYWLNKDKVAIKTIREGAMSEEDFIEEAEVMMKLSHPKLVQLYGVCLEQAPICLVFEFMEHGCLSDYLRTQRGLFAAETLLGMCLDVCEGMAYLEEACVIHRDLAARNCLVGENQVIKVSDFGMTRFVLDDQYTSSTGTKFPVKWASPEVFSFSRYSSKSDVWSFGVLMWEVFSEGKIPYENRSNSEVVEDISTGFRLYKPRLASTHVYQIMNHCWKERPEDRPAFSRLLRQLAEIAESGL

[3] = Octanol-buffer distribution co-efficient, log D of the compound at pH 7.4; type: physicochemical
[4] = target: Fibroblast growth factor receptor 4 (Homo sapiens, UniProt P22455); assay: Inhibition of recombinant human N-terminal His-tagged FGFR4 cytoplasmic domain […] expressed in baculovirus expression system using tyr 04 peptide as substrate measured within 90 mins by Z-LYTE assay
Fibroblast growth factor receptor 4, sequence (P22455 whole entry, the tested form may be a part): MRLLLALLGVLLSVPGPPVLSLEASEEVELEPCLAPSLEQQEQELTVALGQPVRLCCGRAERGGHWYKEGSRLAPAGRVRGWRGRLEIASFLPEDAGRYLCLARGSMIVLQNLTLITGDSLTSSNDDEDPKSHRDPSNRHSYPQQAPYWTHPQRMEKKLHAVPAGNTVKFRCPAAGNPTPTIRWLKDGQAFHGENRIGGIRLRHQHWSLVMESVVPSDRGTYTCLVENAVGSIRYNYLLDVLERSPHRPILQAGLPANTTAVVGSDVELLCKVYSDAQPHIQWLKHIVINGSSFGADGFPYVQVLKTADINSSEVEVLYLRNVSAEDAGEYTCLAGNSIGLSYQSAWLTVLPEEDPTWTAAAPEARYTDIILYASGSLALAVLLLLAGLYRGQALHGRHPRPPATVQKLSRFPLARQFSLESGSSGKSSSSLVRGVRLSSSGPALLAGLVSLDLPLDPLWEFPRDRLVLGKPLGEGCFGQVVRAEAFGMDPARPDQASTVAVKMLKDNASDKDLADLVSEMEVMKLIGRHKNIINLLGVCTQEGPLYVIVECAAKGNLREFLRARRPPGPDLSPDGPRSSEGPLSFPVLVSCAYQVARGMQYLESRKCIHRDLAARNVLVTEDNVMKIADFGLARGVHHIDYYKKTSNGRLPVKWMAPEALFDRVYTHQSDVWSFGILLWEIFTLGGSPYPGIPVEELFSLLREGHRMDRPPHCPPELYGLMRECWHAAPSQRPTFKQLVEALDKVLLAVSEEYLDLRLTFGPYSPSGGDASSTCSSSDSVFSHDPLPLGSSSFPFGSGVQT

[5] = target: Fibroblast growth factor receptor 1 (Homo sapiens, UniProt P11362); assay: Inhibition of recombinant human His-tagged FGFR1 cytoplasmic domain (308 to 731 residues) expressed in baculovirus expression system using tyr 04 as substrate measured within 60 mins by Z-LYTE assay
Fibroblast growth factor receptor 1, sequence (P11362 whole entry, the tested form may be a part): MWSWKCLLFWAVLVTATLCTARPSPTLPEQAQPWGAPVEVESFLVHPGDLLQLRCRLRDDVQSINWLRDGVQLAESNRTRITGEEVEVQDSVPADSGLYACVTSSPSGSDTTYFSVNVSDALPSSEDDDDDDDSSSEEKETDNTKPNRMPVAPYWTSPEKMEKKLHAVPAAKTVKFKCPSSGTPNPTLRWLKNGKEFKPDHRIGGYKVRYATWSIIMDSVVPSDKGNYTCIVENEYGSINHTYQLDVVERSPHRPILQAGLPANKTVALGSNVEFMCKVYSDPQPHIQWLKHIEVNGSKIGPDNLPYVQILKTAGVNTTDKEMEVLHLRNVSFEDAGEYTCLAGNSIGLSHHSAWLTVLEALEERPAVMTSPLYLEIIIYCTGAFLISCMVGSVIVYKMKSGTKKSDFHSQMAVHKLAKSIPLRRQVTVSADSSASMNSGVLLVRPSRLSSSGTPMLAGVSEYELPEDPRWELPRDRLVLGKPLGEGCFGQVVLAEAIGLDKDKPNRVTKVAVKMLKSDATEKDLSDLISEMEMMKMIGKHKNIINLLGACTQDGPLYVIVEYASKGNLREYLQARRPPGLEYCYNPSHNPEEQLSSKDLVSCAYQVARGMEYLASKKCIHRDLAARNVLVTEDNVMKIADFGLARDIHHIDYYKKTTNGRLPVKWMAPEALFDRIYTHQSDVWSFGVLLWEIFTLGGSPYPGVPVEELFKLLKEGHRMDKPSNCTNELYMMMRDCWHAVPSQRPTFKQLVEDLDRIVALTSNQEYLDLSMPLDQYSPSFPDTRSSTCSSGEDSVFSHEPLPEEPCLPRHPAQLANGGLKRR

[6] = target: T2, Tyrosine-protein kinase JAK3 (Homo sapiens) (UniProt P52333); assay: Inhibition of human JAK3 at 10 uM using GEEEEYFELVKKKK as substrate measured after 120 mins in presence of [gamma33P]ATP by P81 ion exchange chromatographic method relative to control
T2 sequence (whole entry): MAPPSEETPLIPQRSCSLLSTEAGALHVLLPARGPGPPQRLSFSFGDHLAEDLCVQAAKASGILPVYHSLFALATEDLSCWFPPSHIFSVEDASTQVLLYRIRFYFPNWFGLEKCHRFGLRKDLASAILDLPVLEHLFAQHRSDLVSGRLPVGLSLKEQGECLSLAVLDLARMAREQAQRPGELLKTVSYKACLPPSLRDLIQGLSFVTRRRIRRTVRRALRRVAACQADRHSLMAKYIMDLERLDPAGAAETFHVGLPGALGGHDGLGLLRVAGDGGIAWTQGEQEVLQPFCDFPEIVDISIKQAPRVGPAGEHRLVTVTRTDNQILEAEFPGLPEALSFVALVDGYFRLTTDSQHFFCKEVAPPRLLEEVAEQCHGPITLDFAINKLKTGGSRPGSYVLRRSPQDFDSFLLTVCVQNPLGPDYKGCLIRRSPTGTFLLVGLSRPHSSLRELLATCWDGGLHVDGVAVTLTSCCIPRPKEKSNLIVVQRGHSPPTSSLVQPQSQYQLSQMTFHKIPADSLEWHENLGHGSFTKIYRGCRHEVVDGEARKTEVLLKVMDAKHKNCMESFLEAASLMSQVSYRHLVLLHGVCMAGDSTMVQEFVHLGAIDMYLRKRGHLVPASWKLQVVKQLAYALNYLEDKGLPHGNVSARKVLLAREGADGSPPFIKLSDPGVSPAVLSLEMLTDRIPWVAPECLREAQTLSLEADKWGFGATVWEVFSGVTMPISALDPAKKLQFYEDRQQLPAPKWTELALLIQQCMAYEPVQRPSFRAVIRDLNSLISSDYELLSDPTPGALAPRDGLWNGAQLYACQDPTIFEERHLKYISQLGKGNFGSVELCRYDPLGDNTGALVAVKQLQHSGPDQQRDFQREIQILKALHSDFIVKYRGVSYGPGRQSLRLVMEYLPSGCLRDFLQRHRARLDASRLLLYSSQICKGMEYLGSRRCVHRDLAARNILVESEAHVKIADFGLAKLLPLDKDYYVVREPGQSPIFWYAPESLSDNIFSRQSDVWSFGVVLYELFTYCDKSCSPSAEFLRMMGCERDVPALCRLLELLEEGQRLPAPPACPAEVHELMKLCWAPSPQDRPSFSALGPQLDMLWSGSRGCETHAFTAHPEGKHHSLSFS

[7] = Efflux ratio of apparent permeability from basolateral to apical over apical to basolateral side in MDCK2-MDR1 cells at 2 uM after 2.5 hrs LC-MS/MS analysis; type: ADME, cell-based, Canis lupus familiaris; details: dog, MDCK-MDR1
[8] = target: T3, Tyrosine-protein kinase Tec (Homo sapiens) (UniProt P42680); assay: Inhibition of human TEC at 10 uM using poly[Glu:Tyr] (4:1) as substrate measured after 120 mins in presence of [gamma33P]ATP by P81 ion exchange chromatographic method relative to control
T3 sequence (whole entry): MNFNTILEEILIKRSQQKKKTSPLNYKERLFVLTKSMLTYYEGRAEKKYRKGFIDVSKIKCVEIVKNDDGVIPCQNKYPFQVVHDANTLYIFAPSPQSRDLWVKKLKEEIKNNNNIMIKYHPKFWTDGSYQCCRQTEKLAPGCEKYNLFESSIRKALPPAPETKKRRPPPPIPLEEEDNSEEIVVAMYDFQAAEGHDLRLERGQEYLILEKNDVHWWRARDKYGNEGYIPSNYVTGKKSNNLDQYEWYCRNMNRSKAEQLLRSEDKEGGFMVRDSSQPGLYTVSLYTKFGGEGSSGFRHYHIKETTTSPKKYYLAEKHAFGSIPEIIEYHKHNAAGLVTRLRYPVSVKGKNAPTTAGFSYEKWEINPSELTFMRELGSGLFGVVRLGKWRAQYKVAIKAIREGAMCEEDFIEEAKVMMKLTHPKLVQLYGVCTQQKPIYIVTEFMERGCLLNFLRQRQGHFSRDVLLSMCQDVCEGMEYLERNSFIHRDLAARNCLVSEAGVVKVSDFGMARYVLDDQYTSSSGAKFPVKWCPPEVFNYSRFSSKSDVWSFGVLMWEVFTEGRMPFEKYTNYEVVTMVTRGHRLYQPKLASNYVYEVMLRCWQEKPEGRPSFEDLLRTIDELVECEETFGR

[9] = Unbound plasma concentration in rat at 2 uM measured after 4 hrs by LC-MS/MS analysis; type: ADME, cell-free
Plasma = assay: Drug degradation in human plasma measured after 2 hrs by metabolite identification method; type: ADME, cell-free

fraction unbound at 4 h, 2 µM [1] | inhibition [2] [%] | logD [3] | IC50 [4] [nM] | IC50 [5] [nM] | inhibition [6] [%] | efflux ratio at 2.5 h, 2 µM [7] | inhibition [8] [%] | fraction unbound at 4 h, 2 µM [9] | Drug degradation (Plasma) [%] | SMILES
0.354 | 0 | 1.8 | 13 | 3500 | 9 | 3.8 | -1 | 0.309 |  | C=CC(=O)N[C@H]1COC[C@H]1Nc1ncc(OCc2c(F)c(OC)cc(OC)c2F)cn1
 | 9 | 3 | 3 | 8600 | 7 | 1 |  |  | 30 | C=CC(=O)Nc1cccc(C)c1Nc1ncc(OCc2c(F)c(OC)cc(OC)c2F)cn1
 | 16 | > 4.5 |  |  | 12 |  | -5 |  |  | C=CC(=O)Nc1cccc(C)c1Nc1ncc2cc(-c3c(Cl)c(OC)cc(OC)c3Cl)ccc2n1
